For 30 compounds, IC50 results are on record in patent US9777020B2, “Furo-3-carboxamide derivatives and methods of use” (AbbVie Inc., priority 2014, dated 2017).

The experiment has as its target TrkA (Homo sapiens (Human), UniProt P04629). Description: TrkA kinase HTRF enzyme inhibition assay. In kind it is biochemical. As to conditions: TrkA pre-incubated with 200 μM ATP. Here is the method:
TrkA enzyme was obtained from Invitrogen (as catalog numbers PV3144, PV3616, and PV3617, respectively). Enzyme activity was measured in an HTRF® (homogeneous time resolved fluorescence) assay, which detects enzymatic phosphorylation of a biotinylated synthetic peptide substrate (an LCK peptide analog, biotin-ahx-[…], from Genemed Synthesis). Phosphorylation is assessed by HTRF® in the presence of an anti-phosphotyrosine antibody conjugated to Eu^3+ cryptate (Cisbio) as donor fluorophore, and streptavidin conjugated to allophycocyanin (ProZyme) as acceptor fluorophore. The HTRF® signal was detected at two different wavelengths (620 nm and 665 nm) which were used to calculate the fluorescence ratio.
TrkA enzyme was titrated to a concentration optimized to ensure accurate measurement of the initial reaction rate. To allow the TrkA enzyme to undergo activation and auto-phosphorylation, a 20 minute pre-incubation with ATP was carried out (at twice the final targeted enzyme and ATP concentration) prior to addition of test compound and the peptide substrate.
TrkA in vitro assays were performed by pre-incubating TrkA (2-10 nM) with ATP (200 μM) for 20 minutes at ambient temperature in 50 mM HEPES pH 7.4, 10 mM MgCl2, 2 mM MnCl2, 100 μM Na3VO4, 1 mM dithiothreitol, 0.01% BSA (bovine serum albumin). Then, to the activated Trk enzyme mixture was added the test compound in 2% dimethyl sulfoxide. After 10 minutes, the peptide substrate (125 nM) was added. After 1 hour, enzyme reactions were terminated by addition of equal reaction volumes of detection/stop reagent (containing 0.2 μg/mL anti-phosphotyrosine monoclonal antibody labeled with europium from Cisbio (catalog#PT66-K), and 4 μg/mL PhycoLink® Streptavidin-Allophycocyanin conjugate from ProZyme (catalog#PJ25S) in 60 mM EDTA in 40 mM HEPES pH 7.4, 480 mM KF, 0.01% Tween® 20 and 0.1% BSA bovine serum albumin) Reaction plates were stored at 4° C. overnight before reading the fluorescence ratio signal on a PerkinElmer EnVision™ fluorescence detector. Individual reaction wells were stopped at time points to obtain reaction rates. The test inhibitor compounds were assayed in duplicate, at half-log serial dilutions over a range of concentrations (e.g. starting at 50 μM or 5 μM as the high compound concentration). The percent Trk enzyme inhibition was calculated from the initial rates of the inhibited reactions relative to the uninhibited control. IC50 values were calculated by fitting the inhibition percent to the concentration of inhibitor [I] in the assay in equation 1 below, to solve for the IC50. Inhibition %=100[I]/([I]+[IC50]) equation 1

Sequence of TrkA (P04629 33-796): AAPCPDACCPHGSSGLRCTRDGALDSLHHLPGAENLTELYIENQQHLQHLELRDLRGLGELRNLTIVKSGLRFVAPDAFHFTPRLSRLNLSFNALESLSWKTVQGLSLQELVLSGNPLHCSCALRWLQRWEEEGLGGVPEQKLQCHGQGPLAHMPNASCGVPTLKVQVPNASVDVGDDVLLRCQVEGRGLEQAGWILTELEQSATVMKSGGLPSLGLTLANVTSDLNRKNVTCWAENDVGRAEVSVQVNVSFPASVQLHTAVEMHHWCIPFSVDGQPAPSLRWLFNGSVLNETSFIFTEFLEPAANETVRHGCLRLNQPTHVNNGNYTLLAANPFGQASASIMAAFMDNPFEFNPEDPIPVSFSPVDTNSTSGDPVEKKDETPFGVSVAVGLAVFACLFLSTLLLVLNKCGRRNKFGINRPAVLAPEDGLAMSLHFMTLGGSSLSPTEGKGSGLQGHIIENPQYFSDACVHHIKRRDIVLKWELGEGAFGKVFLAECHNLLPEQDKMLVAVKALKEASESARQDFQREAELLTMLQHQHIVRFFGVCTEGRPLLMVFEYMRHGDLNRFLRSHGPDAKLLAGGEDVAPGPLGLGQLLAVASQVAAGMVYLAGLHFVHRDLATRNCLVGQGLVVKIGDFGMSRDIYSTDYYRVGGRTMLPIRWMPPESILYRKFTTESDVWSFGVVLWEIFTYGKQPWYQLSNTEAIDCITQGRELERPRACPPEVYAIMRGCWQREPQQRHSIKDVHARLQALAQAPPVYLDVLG

Regarding `O=C(Nc1ccc2c(cnn2CCO)c1)c1coc2c1C(=O)NCC2` [Example 53, N-[1-(2-hydroxyethyl)-1H-indazol-5-yl]-4-oxo-4,5,6,7-tetrahydrofuro[3,2-c]pyridine-3-carboxamide], the IC50 (as a rule, the concentration needed to halve the response being measured) was found to be 67.5 nM.
The result for `O=C(Nc1ccc2c(cnn2CCN2CCCC2)c1)c1coc2c1C(=O)NCC2` [Example 54, 4-oxo-N-{1-[2-(pyrrolidin-1-yl)ethyl]-1H-indazol-5-yl}-4,5,6,7-tetrahydrofuro[3,2-c]pyridine-3-carboxamide] reads 108 nM; that for `CC(O)Cn1cc2cc(NC(=O)c3coc4c3C(=O)NCC4)ccc2n1` (stereo not drawn) [Example 55, N-[2-(2-hydroxypropyl)-2H-indazol-5-yl]-4-oxo-4,5,6,7-tetrahydrofuro[3,2-c]pyridine-3-carboxamide], 20.8 nM; that for `O=C(Nc1ccc2c(cnn2CCN2CCOCC2)c1)c1coc2c1C(=O)NCC2` [Example 56, N-{1-[2-(morpholin-4-yl)ethyl]-1H-indazol-5-yl}-4-oxo-4,5,6,7-tetrahydrofuro[3,2-c]pyridine-3-carboxamide], 48.5 nM.
The result for `CN1CCN(CCn2ncc3cc(NC(=O)c4coc5c4C(=O)NCC5)ccc32)CC1` [Example 57, N-{1-[2-(4-methylpiperazin-1-yl)ethyl]-1H-indazol-5-yl}-4-oxo-4,5,6,7-tetrahydrofuro[3,2-c]pyridine-3-carboxamide] reads 34.6 nM; that for `CS(=O)(=O)NCCn1ncc2cc(NC(=O)c3coc4c3C(=O)NCC4)ccc21` [Example 58, N-(1-{2-[(methylsulfonyl)amino]ethyl}-1H-indazol-5-yl)-4-oxo-4,5,6,7-tetrahydrofuro[3,2-c]pyridine-3-carboxamide], 105 nM; that for `CN1CCc2occ(C(=O)Nc3ccc(O)cc3)c2C1=O` [Example 59, N-(4-hydroxyphenyl)-5-methyl-4-oxo-4,5,6,7-tetrahydrofuro[3,2-c]pyridine-3-carboxamide], 984 nM.
`CC(=O)Nc1ccc(NC(=O)c2coc3c2C(=O)N(C)CC3)cc1` [Example 60, N-(4-acetamidophenyl)-5-methyl-4-oxo-4,5,6,7-tetrahydrofuro[3,2-c]pyridine-3-carboxamide] had an IC50 of 2110 nM.
For `CN1CCc2occ(C(=O)Nc3ccc(N4CCCCC4)cc3)c2C1=O` [Example 61, 5-methyl-4-oxo-N-[4-(piperidin-1-yl)phenyl]-4,5,6,7-tetrahydrofuro[3,2-c]pyridine-3-carboxamide], 195 nM corresponded to half-maximal inhibition (IC50).
The result for `CN1CCc2occ(C(=O)Nc3cnc4ccccc4c3)c2C1=O` [Example 62, 5-methyl-4-oxo-N-(quinolin-3-yl)-4,5,6,7-tetrahydrofuro[3,2-c]pyridine-3-carboxamide] reads 827 nM; that for `CN1CCc2occ(C(=O)Nc3ccc4ncccc4c3)c2C1=O` [Example 63, 5-methyl-4-oxo-N-(quinolin-6-yl)-4,5,6,7-tetrahydrofuro[3,2-c]pyridine-3-carboxamide], 319 nM.
With `CN1CCc2occ(C(=O)Nc3ccc4cn[nH]c4c3)c2C1=O` [Example 64, N-(1H-indazol-6-yl)-5-methyl-4-oxo-4,5,6,7-tetrahydrofuro[3,2-c]pyridine-3-carboxamide] the figure was 134 nM; with `COc1ccc(NC(=O)c2coc3c2C(=O)N(C)CC3)c(OC)n1` [Example 65, N-(2,6-dimethoxypyridin-3-yl)-5-methyl-4-oxo-4,5,6,7-tetrahydrofuro[3,2-c]pyridine-3-carboxamide], 146 nM.
With `Cc1cc(NC(=O)c2coc3c2C(=O)N(C)CC3)no1` [Example 66, 5-methyl-N-(5-methyl-1,2-oxazol-3-yl)-4-oxo-4,5,6,7-tetrahydrofuro[3,2-c]pyridine-3-carboxamide] the figure was 5080 nM; with `CN1CCc2occ(C(=O)Nc3ccc(C#N)cc3)c2C1=O` [Example 67, N-(4-cyanophenyl)-5-methyl-4-oxo-4,5,6,7-tetrahydrofuro[3,2-c]pyridine-3-carboxamide], 1080 nM; with `CN1CCc2occ(C(=O)Nc3ccc(F)cn3)c2C1=O` [Example 68, N-(5-fluoropyridin-2-yl)-5-methyl-4-oxo-4,5,6,7-tetrahydrofuro[3,2-c]pyridine-3-carboxamide], 5820 nM.
In turn, `COc1ccc(NC(=O)c2coc3c2C(=O)N(C)CC3)cn1` [Example 69, N-(6-methoxypyridin-3-yl)-5-methyl-4-oxo-4,5,6,7-tetrahydrofuro[3,2-c]pyridine-3-carboxamide] gave an IC50 of 4340 nM.
With `CN1CCc2occ(C(=O)Nc3ccc(Cl)cn3)c2C1=O` [Example 70, N-(5-chloropyridin-2-yl)-5-methyl-4-oxo-4,5,6,7-tetrahydrofuro[3,2-c]pyridine-3-carboxamide] the figure was 2490 nM.
With `CN1CCc2occ(C(=O)Nc3cccc(C#N)c3)c2C1=O` [Example 71, N-(3-cyanophenyl)-5-methyl-4-oxo-4,5,6,7-tetrahydrofuro[3,2-c]pyridine-3-carboxamide] the figure was 3670 nM.
With `CCOc1ccc(NC(=O)c2coc3c2C(=O)N(C)CC3)cn1` [Example 72, N-(6-ethoxypyridin-3-yl)-5-methyl-4-oxo-4,5,6,7-tetrahydrofuro[3,2-c]pyridine-3-carboxamide] the figure was 2480 nM; with `Cc1n[nH]c2ccc(NC(=O)c3coc4c3C(=O)N(C)CC4)cc12` [Example 73, 5-methyl-N-(3-methyl-1H-indazol-5-yl)-4-oxo-4,5,6,7-tetrahydrofuro[3,2-c]pyridine-3-carboxamide], 1080 nM; with `Cc1cc2[nH]ncc2cc1NC(=O)c1coc2c1C(=O)N(C)CC2` [Example 74, 5-methyl-N-(6-methyl-1H-indazol-5-yl)-4-oxo-4,5,6,7-tetrahydrofuro[3,2-c]pyridine-3-carboxamide], 2590 nM.
In turn, `CN1CCc2occ(C(=O)Nc3nc4ccccc4s3)c2C1=O` [Example 75, N-(1,3-benzothiazol-2-yl)-5-methyl-4-oxo-4,5,6,7-tetrahydrofuro[3,2-c]pyridine-3-carboxamide] had an IC50 of 2050 nM.
With `CN1CCc2occ(C(=O)Nc3ccc(C(F)(F)F)cn3)c2C1=O` [Example 76, 5-methyl-4-oxo-N-[5-(trifluoromethyl)pyridin-2-yl]-4,5,6,7-tetrahydrofuro[3,2-c]pyridine-3-carboxamide] the figure was 1530 nM; with `CN1CCc2occ(C(=O)Nc3cc4cn[nH]c4cc3Cl)c2C1=O` [Example 77, N-(6-chloro-1H-indazol-5-yl)-5-methyl-4-oxo-4,5,6,7-tetrahydrofuro[3,2-c]pyridine-3-carboxamide], 367 nM.
With `Cc1nc2cc(NC(=O)c3coc4c3C(=O)N(C)CC4)ccc2[nH]1` [Example 78, 5-methyl-N-(2-methyl-1H-benzimidazol-5-yl)-4-oxo-4,5,6,7-tetrahydrofuro[3,2-c]pyridine-3-carboxamide] the figure was 236 nM; with `COc1cc(N2CCN(C(=O)CC(C)(C)C)CC2)ccc1NC(=O)c1coc2c1C(=O)NCC2` [Example 79, N-{4-[4-(3,3-dimethylbutanoyl)piperazin-1-yl]-2-methoxyphenyl}-4-oxo-4,5,6,7-tetrahydrofuro[3,2-c]pyridine-3-carboxamide], 44.7 nM.
The result for `COc1cc(N2CCN(C(=O)N3CCCC3)CC2)ccc1NC(=O)c1coc2c1C(=O)NCC2` [Example 80, N-{2-methoxy-4-[4-(pyrrolidin-1-ylcarbonyl)piperazin-1-yl]phenyl}-4-oxo-4,5,6,7-tetrahydrofuro[3,2-c]pyridine-3-carboxamide] reads 67.7 nM; that for `COc1cc(N2CCN(S(=O)(=O)N(C)C)CC2)ccc1NC(=O)c1coc2c1C(=O)NCC2` [Example 81, N-{4-[4-(dimethylsulfamoyl)piperazin-1-yl]-2-methoxyphenyl}-4-oxo-4,5,6,7-tetrahydrofuro[3,2-c]pyridine-3-carboxamide], 65.8 nM; that for `COC(=O)c1ccc(Oc2nc(N3CCN(C)CC3)ccc2NC(=O)c2coc3c2C(=O)NCCC3)cc1` [Example 82, methyl 4-{[6-(4-methylpiperazin-1-yl)-3-{[(4-oxo-5,6,7,8-tetrahydro-4H-furo[3,2-c]azepin-3-yl)carbonyl]amino}pyridin-2-yl]oxy}benzoate], 682 nM.
